# From paper PMC6966871 (Journal of Hematology & Oncology, 2020)
# Like-named read-outs stand apart in the source and are kept apart here.
# Columns and labels:
# KDR [h] = test system: KDR [h]; design: method as in unpublished data; conditions: 0.2 μM in vitro; one range for all five kinases; ref unpublished data; cited from earlier work
# [1] = test system: advanced non-small cell lung cancer; assay: Tumor response assessed by investigators per RECIST v1.1; type: in vivo, human (Chinese patients); conditions: for Partial remission (PR) / Progressive disease (PD): number of patients (%)
# DDR2[h] = test system: DDR2[h]; design: method as in unpublished data; conditions: 0.2 μM in vitro; one range for all five kinases; ref unpublished data; cited from earlier work
# c-MET [h] = test system: c-MET [h]; design: method as in unpublished data; conditions: 0.2 μM in vitro; one range for all five kinases; ref unpublished data; cited from earlier work
# EBC-1 cell line = conditions: read-out: IC50 against the growth of lung cancer EBC-1 cell line; cited from earlier work
# AXL [h] = test system: AXL [h]; design: method as in unpublished data; conditions: 0.2 μM in vitro; one range for all five kinases; ref unpublished data; cited from earlier work
# [2] = test system: lung adenocarcinoma patient-derived xenograft (PDX); conditions: with overexpression of c-MET; ref our preclinical study; cited from earlier work
# Ron [h] = test system: Ron [h]; design: method as in unpublished data; conditions: 0.2 μM in vitro; one range for all five kinases; ref unpublished data; cited from earlier work
# VEGFR = test system: VEGFR; design: method as in unpublished data; conditions: preclinical; ref unpublished data; read-out: IC50 against VEGFR; cited from earlier work
# [3] = Continuous dose (QD) pharmacokinetics (cycle 1, day 28) in patients; type: in vivo, human (Chinese patients); conditions: continuous QD dosing, 100 mg to 800 mg
# Procedure: (§1) For the single-dose PK test in the cycle 0, serial peripheral blood samples were collected at pre-dose and at 0.5, 1, 2, 3, 4, 6, 8, 12, 16, 24, 48, 72, and 144 h post-dose. For the continuous dose PK test in the cycle 1, serial peripheral blood samples were collected at pre-dose on days 8, 15, 22, and 28, and at 0.5, 1, 2, 3, 4, 5, 6, 8, 12, 16, 24, 48, and 72 h post-dose on day 28. All serial peripheral blood samples were collected in heparin sodium anticoagulation tubes and centrifuged at 1900g for 10 min before storage at − 80 °C until analysis.
# [4] = target: wild-type c-Met tyrosine kinase; conditions: enzymatic assay; read-out: IC50 against wild-type c-Met tyrosine kinase; cited from earlier work
# AXL kinase = conditions: read-out: IC50 against AXL kinase; cited from earlier work
# phosphorylation of c-MET = conditions: patient-derived xenograft tumors and MET-amplified cell lines, dose-dependent; cited from earlier work
# [5] = design: species or system human (Chinese patients); conditions: human, in vivo
# Procedure: as §1
# METex14-altered NSCLC = test system: METex14-altered NSCLC; design: method as in doi:10.1200/JCO.2016.34.15_suppl.108; conditions: METex14-altered NSCLC patients; cited from earlier work
# [6] = design: method as in PMID 30718102; conditions: cited from earlier work
# [7] = design: method as in PMID 30724423; conditions: cited from earlier work
# EGFR-mutant NSCLC = test system: EGFR-mutant NSCLC; design: method as in PMID 30156984; conditions: in combination with gefitinib, EGFR-mutant NSCLC progressed on previous gefitinib; cited from earlier work
# [8] = 100 mg/qd group (printed 1 0 mg/qd), n = 4
# [9] = 20 patients, AEs reported by > 20% of patients
# [10] = safety population N = 20, 100–800 mg qd, number of patients (%)
smiles,measurement,setting,value
O=C(Nc1ccc(Oc2ccnc3c2CCN3)c(F)c1)c1c[nH]cc(-c2ccc(F)cc2)c1=O,inhibition of KDR [h],KDR [h],88–100%
same,"Disease control rate, % (95%CI)",[1]; [8],"0 (NA, NA) %"
same,"Objective remission rate, % (95%CI)",[1]; [8],"0 (NA, NA) %"
same,Partial remission (PR),[1]; [8],0
same,Progressive disease (PD),[1]; [8],3 (100.0%)
same,"Disease control rate, % (95%CI)","[1]; 200 mg/qd group, n = 3","66.7 (9.43, 99.16) %"
same,"Objective remission rate, % (95%CI)","[1]; 200 mg/qd group, n = 3","0 (NA, NA) %"
same,Partial remission (PR),"[1]; 200 mg/qd group, n = 3",0
same,Progressive disease (PD),"[1]; 200 mg/qd group, n = 3",1 (33.3%)
same,"Disease control rate, % (95%CI)","[1]; 300 mg/qd group, n = 3","66.7 (9.43, 99.16) %"
same,"Objective remission rate, % (95%CI)","[1]; 300 mg/qd group, n = 3","0 (NA, NA) %"
same,Partial remission (PR),"[1]; 300 mg/qd group, n = 3",0
same,Progressive disease (PD),"[1]; 300 mg/qd group, n = 3",1 (33.3%)
same,"Disease control rate, % (95%CI)","[1]; 450 mg/qd group, n = 4","50.0 (6.76, 93.24) %"
same,"Objective remission rate, % (95%CI)","[1]; 450 mg/qd group, n = 4","0 (NA, NA) %"
same,Partial remission (PR),"[1]; 450 mg/qd group, n = 4",0
same,Progressive disease (PD),"[1]; 450 mg/qd group, n = 4",2 (50.0%)
same,"Disease control rate, % (95%CI)","[1]; 600 mg/qd group, n = 3","66.7 (9.43, 99.16) %"
same,"Objective remission rate, % (95%CI)","[1]; 600 mg/qd group, n = 3","0 (NA, NA) %"
same,Partial remission (PR),"[1]; 600 mg/qd group, n = 3",0
same,Progressive disease (PD),"[1]; 600 mg/qd group, n = 3",1 (33.3%)
same,"Disease control rate, % (95%CI)","[1]; 800 mg/qd group, n = 3","100.0(29.24,100.0) %"
same,"Objective remission rate, % (95%CI)","[1]; 800 mg/qd group, n = 3","33.3 (0.84, 90.57) %"
same,Partial remission (PR),"[1]; 800 mg/qd group, n = 3",1 (33.3%)
same,Progressive disease (PD),"[1]; 800 mg/qd group, n = 3",0
same,patients with tumor burden reduced from baseline,[1]; 19 evaluable patients,53%
same,ORR,"[1]; 19 evaluable patients, text (95% CI 0.1–26%)",5%
same,DCR,"[1]; 19 evaluable patients, text (95% CI 34–80%)",58%
same,"Disease control rate, % (95%CI)","[1]; Total, N = 20 (19 evaluable)","57.9 (33.50, 79.75) %"
same,"Objective remission rate, % (95%CI)","[1]; Total, N = 20 (19 evaluable)","5.3 (0.13, 26.03) %"
same,Partial remission (PR),"[1]; Total, N = 20 (19 evaluable)",1 (5.3%)
same,Progressive disease (PD),"[1]; Total, N = 20 (19 evaluable)",8 (42.1%)
same,number of patients with a partial response,[1]; among 19 evaluable patients,1
same,number of patients with stable disease,[1]; among 19 evaluable patients,10 patients
same,DCR,"[1]; patients (n = 11) with MET gene amplification or c-MET overexpression, exploratory",82%
same,ORR,"[1]; patients without MET dysregulation (eight patients), exploratory",0%
same,inhibition of DDR2[h],DDR2[h],88–100%
same,inhibition of c-MET [h],c-MET [h],88–100%
same,IC50,EBC-1 cell line,120 nM
same,inhibition of AXL [h],AXL [h],88–100%
same,tumor growth of lung adenocarcinoma,[2],significantly inhibited tumor growth
same,inhibition of Ron [h],Ron [h],88–100%
same,IC50,VEGFR,30 nM
same,time after which steady-state concentration was reached,[3],28 days
same,IC50,[4],6 nM
same,IC50,AXL kinase,9 nM
same,"phosphorylation of c-MET and downstream signaling targets (ERK, AKT)",phosphorylation of c-MET,inhibits the phosphorylation of c-MET
same,dose at which exposure (AUC and Cmax) reached saturation,[5],600 mg
same,dose proportionality of maximal plasma concentration (Cmax),[5],increased obviously less than dose proportionally
same,dose proportionality of plasma exposure (AUC0–last),[5],increased slightly less than dose proportionally
same,mean t1/2 (half-life),[5],7.9 to 37.3 h
same,AEs (any grades) leading to dose adjustment,600 mg/qd group,one patient
same,AEs (any grades) leading to dose discontinuation,"600 mg/qd group n = 2, 800 mg/qd group n = 2",four patients
same,TRAE of grade 3 or higher: hypertension,20 patients,15%
same,TRAE of grade 3 or higher: laryngeal pain,20 patients,5%
same,TRAE of grade 3 or higher: pulmonary embolism,20 patients,5%
same,TRAE: constipation,20 patients,30%
same,TRAE: dysgeusia,20 patients,40%
same,TRAE: increased ALT / ALT elevation,20 patients,40%
same,"gastrointestinal symptoms such as vomiting and diarrhea, frequency reported",20 patients,≤ 10%
same,patients experiencing grade 3 AEs,20 patients,45%
same,rate of dose reduction due to AEs,20 patients,5%
same,patients with TRAEs of grade 3 or higher during treatment,20 patients (300 mg/qd n = 1; 600 mg/qd n = 2; 800 mg/qd n = 1),20%
same,patients with treatment-related AEs,"20 patients, 100–800 mg qd",85%
same,TRAE: palmar-plantar erythrodysesthesia syndrome,"20 patients, abstract",15%
same,TRAE: hypertension,"20 patients, any grade",25%
same,AE (any cause): constipation,[9],40%
same,AE (any cause): dysgeusia,[9],40%
same,AE (any cause): hypertension,[9],25%
same,AE (any cause): increased alanine transaminase (ALT),[9],40%
same,AE (any cause): increased conjugated bilirubin,[9],25%
same,AE (any cause): increased hemobilirubin,[9],25%
same,AE (any cause): nausea,[9],25%
same,dose-limiting toxicity (DLT),doses up to 800 mg once daily,No dose-limiting toxicity (DLT) was observed
same,maximum tolerated dose (MTD),maximum dose investigated 800 mg QD,not reached
same,serious adverse events,"pulmonary embolism, 600 mg/qd group, probably related to study treatment",One serious adverse event
same,"Treatment-related adverse event: Constipation, Grade ≥ 3",[10],0
same,"Treatment-related adverse event: Constipation, any grade",[10],6 (30%)
same,"Treatment-related adverse event: Dysgeusia, Grade ≥ 3",[10],0
same,"Treatment-related adverse event: Dysgeusia, any grade",[10],8 (40%)
same,"Treatment-related adverse event: Hypertension, Grade ≥ 3",[10],3 (15%)
same,"Treatment-related adverse event: Hypertension, any grade",[10],5 (25%)
same,"Treatment-related adverse event: Increase AST, Grade ≥ 3",[10],0
same,"Treatment-related adverse event: Increase AST, any grade",[10],4 (20%)
same,"Treatment-related adverse event: Increased ALT, Grade ≥ 3",[10],0
same,"Treatment-related adverse event: Increased ALT, any grade",[10],8 (40%)
same,"Treatment-related adverse event: Increased conjugated bilirubin, Grade ≥ 3",[10],0
same,"Treatment-related adverse event: Increased conjugated bilirubin, any grade",[10],5 (25%)
same,"Treatment-related adverse event: Increased creatine phosphokinase, Grade ≥ 3",[10],0
same,"Treatment-related adverse event: Increased creatine phosphokinase, any grade",[10],3 (15%)
same,"Treatment-related adverse event: Increased gamma-glutamyltransferase, Grade ≥ 3",[10],0
same,"Treatment-related adverse event: Increased gamma-glutamyltransferase, any grade",[10],4 (20%)
same,"Treatment-related adverse event: Increased hemobilirubin, Grade ≥ 3",[10],0
same,"Treatment-related adverse event: Increased hemobilirubin, any grade",[10],5 (25%)
same,"Treatment-related adverse event: Increased unconjugated bilirubin, Grade ≥ 3",[10],0
same,"Treatment-related adverse event: Increased unconjugated bilirubin, any grade",[10],3 (15%)
same,"Treatment-related adverse event: Palmar-plantar erythrodysesthesia, Grade ≥ 3",[10],0
same,"Treatment-related adverse event: Palmar-plantar erythrodysesthesia, any grade",[10],3 (15%)
same,"Treatment-related adverse event: Papulosis, Grade ≥ 3",[10],0
same,"Treatment-related adverse event: Papulosis, any grade",[10],2 (10%)
same,patients with drug discontinuation due to treatment-related AE,two patients in 600 mg/qd group and one in 800 mg/qd group,15%
C[C@@H](Oc1cc(-c2cnn(C3CCNCC3)c2)cnc1N)c1c(Cl)ccc(F)c1Cl [Crizotinib],unconfirmed response rate,METex14-altered NSCLC,up to 44%
COc1cc2nccc(Oc3ccc(NC(=O)C4(C(=O)Nc5ccc(F)cc5)CC4)cc3)c2cc1OC [cabozantinib],rate of discontinuation due to an AE,"[6]; Japanese NSCLC patients, phase 1",10%
same,AE: diarrhea,[6],78%
same,AE: hypertension,[6],87%
same,AE: increased ALT,[6],95%
same,AE: increased AST,[6],95%
same,AE: palmar-plantar erythrodysesthesia,[6],100%
same,patients who experienced ≥ grade 3 AEs,[6],70%
same,patients with dose reduction,"[6]; dose-escalation cohorts, about",30–40%
same,patients with discontinuation,[6]; dose-escalation cohorts,13%
CNC(=O)c1ccc(-c2cnc3ncc(Cc4ccc5ncccc5c4)n3n2)cc1F [capmatinib],patients with one or more dose interruptions,[7]; 21 patients,47.7%
same,AE: decreased appetite,[7],41%
same,AE: diarrhea,[7],25%
same,AE: increased blood creatinine,[7],52%
same,AE: nausea,[7],48
same,AE: vomiting,[7],39%
same,AEs leading to discontinuation,[7],9%
same,adverse events leading to dose adjustment and/or interruption,[7],59%
same,patients with dose interruption only once,[7]; nine patients,20.5%
same,overall ORR,EGFR-mutant NSCLC,27%
